Where two headings read alike, the source gives them in different places.
Legend:
[1] = molecular target: T1, human BACE1(1-460):Fc (Homo sapiens, UniProt P56817); test: BACE1 FRET Assay; type: biochemical; conditions: purified recombinant huBACE1:Fc, mean±standard deviation of the mean, n=4
T1 construct: made in house; host or cells: HEK293 (transient transfection, purified from conditioned media by Protein A)
Procedure: (§1) To assess selectivity of BACE1 over BACE2, the test compound is evaluated in FRET and immunoassay detection base enzymatic assays using specific substrates for BACE1 and BACE2 as described below. For in vitro enzymatic and cellular assays, the test compound is prepared in DMSO to make up a 10 mM stock solution. The stock solution is serially diluted in DMSO to obtain a ten-point dilution curve with final compound concentrations ranging from 10 μM to 0.05 nM in a 96-well round-bottom plate before conducting the in vitro enzymatic and whole cell assays.
Human BACE1 (accession number: AF190725) and human BACE2 (accession number: AF 204944) are cloned from total brain cDNA by RT-PCR. The nucleotide sequences corresponding to amino acid sequences #1 to 460 are inserted into the cDNA encoding human IgG1 (Fc) polypeptide (Vassar et al., Science, 286, 735-742 (1999)). […]
(§2) Conditioned media of HEK293 cells transiently transfected with huBACE1:Fc or huBACE2:Fc cDNA are collected. […] The purity of final product is assessed by electrophoresis in 4-20% Tris-Glycine SDS-PAGE. […]
Serial dilutions of the test compound are prepared as described above. […] The RFU of the mixture at time 0 is recorded at excitation wavelength 355 nm and emission wavelength 460 nm, after brief mixing on a plate shaker. […] The RFU at the end of incubation is recorded with the same excitation and emission settings used at time 0. […]

[2] = molecular target: T2, human BACE2 (1-460):Fc (Homo sapiens, UniProt Q9Y5Z0); test: BACE2 MBP-C125Swe Assay; type: biochemical
T2 construct: made in house; host or cells: HEK293 (transient transfection, purified from conditioned media by Protein A)
T2 sequence (Q9Y5Z0 21-460): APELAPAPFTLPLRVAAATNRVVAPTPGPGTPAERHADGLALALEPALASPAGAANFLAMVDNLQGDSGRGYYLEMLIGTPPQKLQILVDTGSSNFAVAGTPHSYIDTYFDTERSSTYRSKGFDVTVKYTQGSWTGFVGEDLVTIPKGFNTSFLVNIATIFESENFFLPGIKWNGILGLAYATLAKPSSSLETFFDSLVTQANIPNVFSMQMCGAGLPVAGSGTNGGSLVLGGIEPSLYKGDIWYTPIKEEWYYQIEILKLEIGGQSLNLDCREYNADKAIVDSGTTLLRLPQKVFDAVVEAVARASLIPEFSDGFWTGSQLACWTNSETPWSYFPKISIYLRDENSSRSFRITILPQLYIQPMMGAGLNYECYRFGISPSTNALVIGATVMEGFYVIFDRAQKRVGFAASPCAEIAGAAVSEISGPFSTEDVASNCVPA
Procedure: as §1
Human BACE1 (accession number: AF190725) and human BACE2 (accession number: AF 204944) are cloned from total brain cDNA by RT-PCR. The nucleotide sequences corresponding to amino acid sequences #1 to 460 are inserted into the cDNA encoding human IgG1 (Fc) polypeptide (Vassar et al., Science, 286, 735-742 (1999)). This fusion protein of BACE1(1-460) or BACE2(1-460) and human Fc, named huBACE1:Fc and huBACE2:Fc respectively, are constructed in the pJB02 vector. […]
as §2
10 point serial dilutions of test compounds are prepared in the appropriate range. […] The amount of product is measured by ELISA using MBP-C26swe standard. […]

[3] = system: BACE1 activity in SH-SY5YAPP695Wt cells; test: SH-SY5YAPP695Wt Whole Cell Assay (Abeta 1-40 and 1-42 ELISA); type: cell-based; conditions: Homo sapiens, 24 hours incubation, mean±standard deviation of the mean, n=4
Procedure: as §1
The routine whole cell assay for the measurement of inhibition of BACE1 activity utilizes the human neuroblastoma cell line SH-SY5Y (ATCC Accession No. CRL2266) stably expressing a human APP695Wt cDNA. Cells are routinely used up to passage number 6 and then discarded.
SH-SY5YAPP695Wt cells are plated in 96 well tissue culture plates at 5.0×10^4 cells/well in 200 μL culture media (50% MEM/EBSS and Ham's F12, lx each sodium pyruvate, non-essential amino acids and NaHCO3 containing 10% FBS). […]
At the end of the incubation, conditioned media are analyzed for evidence of beta-secretase activity by analysis of Abeta peptides 1-40 and 1-42 by specific sandwich ELISAs. […]

[4] = system: Abeta 1-x peptide levels in brain; test: In Vivo Inhibition of Beta-Secretase (brain Abeta 1-x in PDAPP mice); conditions: p<0.01; for reduction of Abeta 1-x peptide levels in brain hippocampus: young female PDAPP mice; for reduction of Abeta 1-x levels in brain cortical tissue: PDAPP mice, compared to vehicle-treated mice three hours after dosing
Source text: Several animal models, including mouse, guinea pig, dog, and monkey, may be used to screen for inhibition of beta-secretase activity in vivo following compound treatment. Animals used in this invention can be wild type, transgenic, or gene knockout animals. For example, the PDAPP mouse model, prepared as described in Games et al., Nature 373, 523-527 (1995), and other non-transgenic or gene knockout animals are useful to analyze in vivo inhibition of Abeta and sAPPbeta production in the presence of inhibitory compounds. Generally, 2 month old PDAPP mice, gene knockout mice or non-transgenic animals are administered compound formulated in vehicles, such as corn oil, beta-cyclodextran, phosphate buffers, PHARMASOLVE®, or other suitable vehicles via oral, subcutaneous, intra-venous, feeding, or other route of administration. 1 to 24 hours following the administration of compound, animals are sacrificed, and brains are removed for analysis of Abeta 1-x. “Abeta 1-x” as used herein refers to the sum of Abeta species that begin with residue 1 and end with a C-terminus greater than residue 28. This detects the majority of Abeta species and is often called “total Abeta”. Total Abeta peptides (Abeta 1-x) levels are measured by a sandwich ELISA, using monoclonal 266 as a capture antibody and biotinylated 3D6 as reporting antibody. (See May, et al., Journal of Neuroscience, 31, 16507-16516 (2011)).
For acute studies, compound or appropriate vehicle is administered and animals are sacrificed at about 3 hours after dosing. Brain tissue, is obtained from selected animals and analyzed for the presence of Abeta 1-x. After chronic dosing brain tissues of older APP transgenic animals may also be analyzed for the amount of beta-amyloid plaques following compound treatment.
For example, a 0.1, 0.3, and 1 mg/kg oral dose of Example 1, to young female PDAPP mice reduced Abeta 1-x peptide levels in brain hippocampus by 32%, 40%, and 55% (all values p<0.01), respectively.

T1 sequence (P56817 22-460): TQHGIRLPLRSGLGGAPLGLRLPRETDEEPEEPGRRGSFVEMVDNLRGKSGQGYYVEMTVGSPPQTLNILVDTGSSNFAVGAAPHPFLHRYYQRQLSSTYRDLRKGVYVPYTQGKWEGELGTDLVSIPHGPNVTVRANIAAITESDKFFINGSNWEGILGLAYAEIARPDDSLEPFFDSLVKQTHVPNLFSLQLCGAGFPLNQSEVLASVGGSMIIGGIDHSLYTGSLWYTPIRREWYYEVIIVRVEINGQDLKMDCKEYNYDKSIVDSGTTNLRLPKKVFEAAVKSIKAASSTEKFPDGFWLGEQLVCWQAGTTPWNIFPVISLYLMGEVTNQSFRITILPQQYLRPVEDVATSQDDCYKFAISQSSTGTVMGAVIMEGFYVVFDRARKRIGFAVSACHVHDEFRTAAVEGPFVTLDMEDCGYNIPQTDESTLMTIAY

Question: For `CC(F)(F)[C@H]1OC[C@]2(c3cc(NC(=O)c4ccc(C#N)cn4)ccc3F)N=C(N)SC[C@H]12` [Example 1, N-[3-[(4aS,5S,7aS)-2-Amino-5-(1,1-difluoroethyl)-4,4a,5,7-tetrahydrofuro[3,4-d][1,3]thiazin-7a-yl]-4-fluoro-phenyl]-5-cyano-pyridine-2-carboxamide], which IC50 [1] is on record?
Answer: 0.509 nM

Question: What about the IC50 ([2]; MBP-C125Swe substrate, ELISA detection, mean±standard deviation of the mean, n=6) of the same compound?
Answer: 17.6 nM

Question: And the “ratio of BACE1 (FRET IC50 enzyme assay) to BACE2 (MBP-C125Swe cell assay)” value ([2]; selectivity for BACE1 over BACE2)?
Answer: approximately 35 fold

Question: And the IC50 ([3]; read-out: IC50 for SH-SY5YAPP695Wt A-beta (1-40) ELISA)?
Answer: 0.157 nM

Question: And the IC50 ([3]; read-out: IC50 for SH-SY5YAPP695Wt A-beta (1-42) ELISA)?
Answer: 0.177 nM

Question: What about the “reduction of Abeta 1-x peptide levels in brain hippocampus” value (shortened to “reduction of Abeta 1-x peptide levels”) ([4]; 0.1 mg/kg oral dose) of the same compound?
Answer: 32%

Question: What about the “reduction of Abeta 1-x levels in brain cortical tissue” value (“reduction of Abeta 1-x levels” for short) ([4]; 0.1 mg/kg) of the same compound?
Answer: 38%

Question: What about the “reduction of Abeta 1-x peptide levels” value ([4]; 0.3 mg/kg oral dose) of the same compound?
Answer: 40%

Question: What about the “reduction of Abeta 1-x levels” value ([4]; 0.3 mg/kg) of the same compound?
Answer: 50%

Question: And the “reduction of Abeta 1-x peptide levels” value ([4]; 1 mg/kg oral dose)?
Answer: 55%

Question: What about the “reduction of Abeta 1-x levels” value ([4]; 1 mg/kg) of the same compound?
Answer: 67%

Reference: US10011610B2, “Selective BACE1 inhibitors” (Eli Lilly and Company, priority 2015, dated 2018)
